# Test results from PMC7413254 (Nature Communications, 2020).
# Where two headings read alike, the source gives them in different places.
# Experiments:
# non-expressing oocytes [1] = format: cell-based, Xenopus laevis; details: non-expressing oocytes, total [3H]CQ transport, normalised to the oocyte type control
# Procedure, shortened: (§1)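 Oocytes (ten per treatment, ≥4 independent frogs/days) were preloaded by injecting VF-6 in 25 nL ND96 at pH 5.0, 5.5, 6.0 or 7.0, or Na^+-free choline buffer, then uptake run 1.5 h, 27.5 °C, ND96 pH 5.5 by default. Internal concentrations assumed ~400 nL oocyte volume.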
# non-expressing oocytes [2] = assay: cells; format: cell-based, Xenopus laevis; details: non-expressing oocytes, total [3H]CQ transport, normalised to the oocyte type control
# Procedure, shortened: (§2)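 Inward transport into oocyte cytosol from pH 5.5 medium models PfCRT efflux from the acidic digestive vacuole. Incubation 1.5 h, 27.5 °C; termination by ice-cold washes; lysate radioactivity counted.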
# PfCRT^Ecu1110 [3] = biological target: T1, PfCRT^Ecu1110 (Plasmodium falciparum, UniProt Q9N623, A220S/I356L/K76T/N326D); assay: cell-based; format: cell-based; details: for Uptake of [3H]CQ (% PfCRTEcu1110 control), trans-stimulation / PfCRT-mediated [3H]CQ transport, trans-stimulation (% PfCRTEcu1110 control): PfCRTEcu1110 oocytes; for Uptake of [3H]CQ (% PfCRTEcu1110 control), trans-stimulation: total [3H]CQ transport, normalised to the oocyte type control; for PfCRT-mediated [3H]CQ transport, trans-stimulation (% PfCRTEcu1110 control): normalised to oocyte type control; for [3H]CQ transport (% PfCRTDd2 control), trans-stimulation, PfCRTEcu1110: PfCRT-mediated component (background subtracted), sheet title says normalised to PfCRTDd2 control, mean ± SEM, SEM
# Procedure, shortened: as §1
# PfCRT^3D7 [4] = biological target: T2, PfCRT^3D7 (Plasmodium falciparum, UniProt Q8IBZ9); assay: cell-based; format: cell-based; details: PfCRT3D7 oocytes; for Uptake of [3H]CQ (% PfCRT3D7 control), trans-stimulation: total [3H]CQ transport, normalised to the oocyte type control; for PfCRT-mediated [3H]CQ transport, trans-stimulation (% PfCRT3D7 control): normalised to oocyte type control
# Procedure, shortened: as §1
# PfCRT^Dd2 [5] = biological target: T3, PfCRT^Dd2 (Plasmodium falciparum, UniProt Q9N623, A220S/I356T/K76T/M74I/N326S/N75E/Q271E/R371I); assay: cell-based; format: cell-based; details: for PfCRT-mediated [3H]CQ transport, trans-stimulation (% PfCRTDd2 control): normalised to oocyte type control; for [3H]CQ transport (% PfCRTDd2 control), trans-stimulation, PfCRTDd2: PfCRT-mediated component (background subtracted), mean ± SEM, SEM
# Procedure, shortened: as §1
# PfNT1 = biological target: T4, PfNT1 (Plasmodium falciparum, UniProt Q8IDM6); assay: cell-based; format: cell-based; details: PfNT1 oocytes, total [3H]CQ transport, normalised to the oocyte type control
# T4 construct: expressed in transfected cells; host or cells: Xenopus laevis oocytes (stage V-VI), cRNA-injected
# Procedure, shortened: as §1
# PfCRT^Ecu1110 [6] = biological target: T1, PfCRT^Ecu1110; assay: [3H]CQ uptake into Xenopus oocytes, cis-inhibition by unlabelled solute; format: cell-based; details: for Uptake of [3H]CQ (% PfCRTEcu1110 control), cis-inhibition / PfCRT-mediated [3H]CQ transport, cis-inhibition (% PfCRTEcu1110 control): PfCRTEcu1110 oocytes; for Uptake of [3H]CQ (% PfCRTEcu1110 control), cis-inhibition: total [3H]CQ transport, normalised to the oocyte type control; for PfCRT-mediated [3H]CQ transport, cis-inhibition (% PfCRTEcu1110 control): background [3H]CQ accumulation subtracted, normalised to oocyte type control; for [3H]CQ transport (% PfCRTEcu1110 control), cis-inhibition, PfCRTEcu1110: PfCRT-mediated component (background subtracted), sheet title says normalised to PfCRTDd2 control, mean ± SEM, SEM
# Procedure, shortened: as §2
# PfCRT^Dd2 [7] = biological target: T3, PfCRT^Dd2; assay: as above; format: cell-based; details: PfCRTDd2 oocytes, background [3H]CQ accumulation subtracted, normalised to oocyte type control
# Procedure, shortened: as §2
# PfCRT^3D7 [8] = biological target: T2, PfCRT^3D7; assay: cell-based; format: cell-based; details: PfCRT3D7 oocytes, total [3H]CQ transport, normalised to the oocyte type control
# Procedure, shortened: as §2
# PfCRT = assay: Test of solutes as potential co-substrates for influx of VF-6 via PfCRT into the oocyte; format: cell-based, Plasmodium falciparum; parameters: key: X: Compounds that have been tested as potential co-substrates but are not required for influx of VF-6 via PfCRT into the oocyte; details: X = tested
# [9] = [test solute]i = 45 mM (30 mM for some solutes due to solubility)
# [10] = [test solute]i = 5 mM (intracellular)
# [11] = [test solute]i = 45 mM (intracellular; 30 mM for some solutes due to solubility)
# [12] = [test solute]i = 5 mM (injected)
# T2 sequence (Q8IBZ9 59-398): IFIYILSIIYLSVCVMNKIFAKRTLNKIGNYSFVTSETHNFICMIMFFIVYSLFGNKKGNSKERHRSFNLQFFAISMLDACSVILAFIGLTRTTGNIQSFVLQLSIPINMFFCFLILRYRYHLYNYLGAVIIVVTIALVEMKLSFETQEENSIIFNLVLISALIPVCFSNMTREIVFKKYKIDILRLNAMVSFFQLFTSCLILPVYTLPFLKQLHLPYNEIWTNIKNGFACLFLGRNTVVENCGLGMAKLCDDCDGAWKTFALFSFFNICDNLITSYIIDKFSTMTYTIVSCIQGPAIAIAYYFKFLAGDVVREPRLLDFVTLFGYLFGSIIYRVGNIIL
# T1 sequence (Q9N623 whole entry A220S/I356L/K76T/N326D): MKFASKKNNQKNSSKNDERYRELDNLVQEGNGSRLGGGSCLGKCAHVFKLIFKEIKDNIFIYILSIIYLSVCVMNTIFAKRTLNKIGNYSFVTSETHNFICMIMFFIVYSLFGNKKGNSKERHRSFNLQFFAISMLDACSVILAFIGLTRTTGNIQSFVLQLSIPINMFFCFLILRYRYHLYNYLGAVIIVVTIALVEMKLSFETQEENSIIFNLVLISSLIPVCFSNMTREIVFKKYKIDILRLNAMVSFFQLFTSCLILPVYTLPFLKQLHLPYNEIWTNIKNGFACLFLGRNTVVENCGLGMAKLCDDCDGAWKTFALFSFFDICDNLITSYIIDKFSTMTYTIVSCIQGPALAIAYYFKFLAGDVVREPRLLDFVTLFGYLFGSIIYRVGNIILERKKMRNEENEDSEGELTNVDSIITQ
# T3 sequence (Q9N623 whole entry A220S/I356T/K76T/M74I/N326S/N75E/Q271E/R371I): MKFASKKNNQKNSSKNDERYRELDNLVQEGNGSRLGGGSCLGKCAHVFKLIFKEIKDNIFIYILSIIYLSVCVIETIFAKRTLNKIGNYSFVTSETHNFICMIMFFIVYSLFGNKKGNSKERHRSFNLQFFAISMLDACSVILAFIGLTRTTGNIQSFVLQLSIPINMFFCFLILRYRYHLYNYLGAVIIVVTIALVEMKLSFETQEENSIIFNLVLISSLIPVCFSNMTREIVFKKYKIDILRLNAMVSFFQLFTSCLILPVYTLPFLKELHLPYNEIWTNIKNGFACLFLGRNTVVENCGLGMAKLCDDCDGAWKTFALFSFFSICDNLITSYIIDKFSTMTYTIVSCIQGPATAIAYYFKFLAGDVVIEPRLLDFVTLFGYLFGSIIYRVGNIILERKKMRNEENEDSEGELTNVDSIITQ
# T4 sequence (Q8IDM6 whole entry): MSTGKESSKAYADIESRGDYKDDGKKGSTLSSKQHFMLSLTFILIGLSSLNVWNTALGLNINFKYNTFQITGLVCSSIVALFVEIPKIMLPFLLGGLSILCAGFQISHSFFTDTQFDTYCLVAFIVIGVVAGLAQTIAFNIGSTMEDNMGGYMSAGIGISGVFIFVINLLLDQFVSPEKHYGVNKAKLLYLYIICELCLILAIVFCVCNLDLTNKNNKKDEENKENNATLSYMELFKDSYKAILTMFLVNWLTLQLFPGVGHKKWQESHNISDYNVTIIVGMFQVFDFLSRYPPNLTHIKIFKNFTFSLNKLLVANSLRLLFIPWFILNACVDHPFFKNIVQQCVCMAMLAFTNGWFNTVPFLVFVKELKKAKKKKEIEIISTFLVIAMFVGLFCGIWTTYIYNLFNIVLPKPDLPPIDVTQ
substance,measurement,setting,value
PVNF [PF-4],"Uptake of [3H]CQ (% non-expressing oocyte control), trans-stimulation",non-expressing oocytes [1]; [test solute]i = 5 mM,99 ± 2.7 % non-expressing oocyte control
same,"Uptake of [3H]CQ (% non-expressing oocyte control), trans-stimulation",non-expressing oocytes [1]; [9],99 ± 3.4 % non-expressing oocyte control
same,"Uptake of [3H]CQ (% non-expressing oocyte control), cis-inhibition",non-expressing oocytes [2]; [test solute] = 0.5 mM,98 ± 4.8 % non-expressing oocyte control
same,"Uptake of [3H]CQ (% non-expressing oocyte control), cis-inhibition",non-expressing oocytes [2]; [test solute] = 1 mM,99 ± 2.6 % non-expressing oocyte control
same,"Uptake of [3H]CQ (% non-expressing oocyte control), cis-inhibition",non-expressing oocytes [2]; [test solute] = 2 mM,98 ± 3.6 % non-expressing oocyte control
same,"Uptake of [3H]CQ (% PfCRTEcu1110 control), trans-stimulation",PfCRT^Ecu1110 [3]; [test solute]i = 5 mM,120 ± 1.1 % PfCRTEcu1110 control
same,"Uptake of [3H]CQ (% PfCRTEcu1110 control), trans-stimulation",PfCRT^Ecu1110 [3]; [9],135 ± 1.4 % PfCRTEcu1110 control
same,"PfCRT-mediated [3H]CQ transport, trans-stimulation (% PfCRTEcu1110 control)",PfCRT^Ecu1110 [3]; [10],118 ± 0.3 % PfCRTEcu1110 control
same,"PfCRT-mediated [3H]CQ transport, trans-stimulation (% PfCRTEcu1110 control)",PfCRT^Ecu1110 [3]; [11],130 ± 3.2 % PfCRTEcu1110 control
same,"[3H]CQ transport (% PfCRTDd2 control), trans-stimulation, PfCRTEcu1110",PfCRT^Ecu1110 [3]; [12],36 ± 1.3 % PfCRTEcu1110 control
same,"[3H]CQ transport (% PfCRTDd2 control), trans-stimulation, PfCRTEcu1110",PfCRT^Ecu1110 [3]; [9],39 ± 1.7 % PfCRTEcu1110 control
same,"Uptake of [3H]CQ (% PfCRT3D7 control), trans-stimulation",PfCRT^3D7 [4]; [test solute]i = 5 mM,138 ± 4.2 % PfCRT3D7 control
same,"Uptake of [3H]CQ (% PfCRT3D7 control), trans-stimulation",PfCRT^3D7 [4]; [9],163 ± 7.4 % PfCRT3D7 control
same,"PfCRT-mediated [3H]CQ transport, trans-stimulation (% PfCRT3D7 control)",PfCRT^3D7 [4]; [10],130 ± 3.2 % PfCRT3D7 control
same,"PfCRT-mediated [3H]CQ transport, trans-stimulation (% PfCRT3D7 control)",PfCRT^3D7 [4]; [11],157 ± 4.4 % PfCRT3D7 control
same,"Uptake of [3H]CQ (% PfCRTDd2 control), trans-stimulation","PfCRT^Dd2 [5]; PfCRTDd2 oocytes, [test solute]i = 45 mM (30 mM for some solutes due to solubility), total [3H]CQ transport, normalised to the oocyte type control",115 ± 2.7 % PfCRTDd2 control
same,"PfCRT-mediated [3H]CQ transport, trans-stimulation (% PfCRTDd2 control)","PfCRT^Dd2 [5]; [test solute]i = 5 mM (intracellular), PfCRTDd2 oocytes",99 ± 1.9 % PfCRTDd2 control
same,"PfCRT-mediated [3H]CQ transport, trans-stimulation (% PfCRTDd2 control)","PfCRT^Dd2 [5]; [test solute]i = 45 mM (intracellular; 30 mM for some solutes due to solubility), PfCRTDd2 oocytes",112 ± 0.9 % PfCRTDd2 control
same,"[3H]CQ transport (% PfCRTDd2 control), trans-stimulation, PfCRTDd2",PfCRT^Dd2 [5]; [12],99 ± 1.9 % PfCRTDd2 control
same,"[3H]CQ transport (% PfCRTDd2 control), trans-stimulation, PfCRTDd2",PfCRT^Dd2 [5]; [9],112 ± 0.9 % PfCRTDd2 control
same,"Uptake of [3H]CQ (% PfNT1 control), trans-stimulation",PfNT1; [test solute]i = 5 mM,99 ± 4.2 % PfNT1 control
same,"Uptake of [3H]CQ (% PfNT1 control), trans-stimulation",PfNT1; [9],100 ± 2.9 % PfNT1 control
same,"Uptake of [3H]CQ (% PfCRTEcu1110 control), cis-inhibition",PfCRT^Ecu1110 [6]; [test solute] = 0.5 mM,65 ± 4.3 % PfCRTEcu1110 control
same,"Uptake of [3H]CQ (% PfCRTEcu1110 control), cis-inhibition",PfCRT^Ecu1110 [6]; [test solute] = 1 mM,59 ± 3.3 % PfCRTEcu1110 control
same,"Uptake of [3H]CQ (% PfCRTEcu1110 control), cis-inhibition",PfCRT^Ecu1110 [6]; [test solute] = 2 mM,41 ± 2.4 % PfCRTEcu1110 control
same,"PfCRT-mediated [3H]CQ transport, cis-inhibition (% PfCRTEcu1110 control)",PfCRT^Ecu1110 [6]; [test solute] = 0.5 mM,61 ± 2.6 % PfCRTEcu1110 control
same,"PfCRT-mediated [3H]CQ transport, cis-inhibition (% PfCRTEcu1110 control)",PfCRT^Ecu1110 [6]; [test solute] = 1 mM,51 ± 4.2 % PfCRTEcu1110 control
same,"PfCRT-mediated [3H]CQ transport, cis-inhibition (% PfCRTEcu1110 control)",PfCRT^Ecu1110 [6]; [test solute] = 2 mM,37 ± 2.9 % PfCRTEcu1110 control
same,"[3H]CQ transport (% PfCRTEcu1110 control), cis-inhibition, PfCRTEcu1110",PfCRT^Ecu1110 [6]; [test solute] = 1 mM,16 ± 0.2 % PfCRTEcu1110 control
same,"[3H]CQ transport (% PfCRTEcu1110 control), cis-inhibition, PfCRTEcu1110",PfCRT^Ecu1110 [6]; [test solute] = 2 mM,12 ± 0.3 % PfCRTEcu1110 control
same,"PfCRT-mediated [3H]CQ transport, cis-inhibition (% PfCRTDd2 control)",PfCRT^Dd2 [7]; [test solute] = 0.5 mM,60 ± 3.3 % PfCRTDd2 control
same,"PfCRT-mediated [3H]CQ transport, cis-inhibition (% PfCRTDd2 control)",PfCRT^Dd2 [7]; [test solute] = 1 mM,51 ± 0.3 % PfCRTDd2 control
same,"PfCRT-mediated [3H]CQ transport, cis-inhibition (% PfCRTDd2 control)",PfCRT^Dd2 [7]; [test solute] = 2 mM,39 ± 2.1 % PfCRTDd2 control
same,"Uptake of [3H]CQ (% PfCRT3D7 control), cis-inhibition",PfCRT^3D7 [8]; [test solute] = 0.5 mM,99 ± 4.7 % PfCRT3D7 control
same,"Uptake of [3H]CQ (% PfCRT3D7 control), cis-inhibition",PfCRT^3D7 [8]; [test solute] = 1 mM,100 ± 5.6 % PfCRT3D7 control
same,"Uptake of [3H]CQ (% PfCRT3D7 control), cis-inhibition",PfCRT^3D7 [8]; [test solute] = 2 mM,101 ± 5.3 % PfCRT3D7 control
same,Tested as potential co-substrate but not required for influx of VF-6 via PfCRT into the oocyte,PfCRT,X
